One assay deals with HSV-2. The assay is described as follows: HSV-2 antiviral assay: plaque reduction in WI-38 cell culture monolayers. In kind it is cell-based, herpes simplex virus type 2, strain 186. The following applies: read-out: ID50 HSV-2. The method, then:
(§1) Assays were performed in cell culture systems to determine the concentrations of compounds that are effective in preventing several kinds of viral infections.
(§2) HSV-1 (herpes simplex virus type 1, strain Schooler), HSV-2 (herpes simplex virus type 2, strain 186), VZV (varicella zoster virus, strain ELLEN).
(§3) HSV-1, HSV-2, and VZV antiviral assays: Virus was adsorbed to WI-38 cell culture monolayers in 6 well culture plates (Costar, Cambridge, Mass.) for 1 hour prior to addition of maintenance medium containing duplicate dilutions of the test compound. Inhibition of plaque development was evaluated on fixed and stained monolayers after 4 days incubation at 37° C. for HSV-1 and HSV-2 and after 6-7 days incubation at 37° C. for VZV. ID50 values were determined from the drug concentration which conferred at least a 50% plaque reduction compared to virus controls (Table 1).

The test system of a further assay is VZV. Briefly: VZV antiviral assay: plaque reduction in WI-38 cell culture monolayers. In kind it is cell-based, varicella zoster virus, strain ELLEN. The following applies: Human alphaherpesvirus 3, 156 h; WI-38 cells; at least 50% plaque reduction vs virus controls; 6-7 days at 37° C.; read-out: ID50 VZV. The method, then: as §1, §2, §3
Another assay has as its system HSV-1. The assay is described as follows: HSV-1 antiviral assay: plaque reduction in WI-38 cell culture monolayers. Particulars: read-out: ID50 HSV-1. In kind it is cell-based, herpes simplex virus type 1, strain Schooler. The method, then: as §1, §2, §3
Where [1] appears, read: Human alphaherpesvirus 2, 96 h, WI-38 cells, at least 50% plaque reduction vs virus controls, 4 days at 37° C.
The mark [2] stands for this setting: Human alphaherpesvirus 1, 96 h, WI-38 cells, at least 50% plaque reduction vs virus controls, 4 days at 37° C.

≈ marks a conversion by molar mass, not a printed value. Like-named read-outs stand apart in the source and are kept apart here. Some results are limits rather than exact numbers.

As for `Nc1nc2c(ncn2[C@@H]2CO[C@H](CO)[C@H]2O)c(=O)[nH]1`, the IC50 in the assay on HSV-2 (setting [1]) was 2 µg/mL (≈ 7.48 µM); in the assay with VZV, 50 to 100 µg/mL (≈ 187 to 374 µM); in the assay with HSV-1 (setting [2]), 2 to 5 µg/mL (≈ 7.48 to 18.7 µM).
Turning to `Cc1cn([C@@H]2CO[C@H](CO)[C@H]2O)c(=O)[nH]c1=O` [[3R-(3α,4β,5α)]-5-Methyl-1-[tetrahydro-4-hydroxy-5-(hydroxymethyl)-3-furanyl]2,4(1H,3H)pyrimidinedione], the values for the IC50 in the assay on HSV-2 (setting [1]), in the assay on VZV and in the assay on HSV-1 (setting [2]) were more than 100 µg/mL, more than 100 µg/mL and 10 µg/mL (≈ 41.3 µM), respectively.
For `Nc1ccn([C@@H]2CO[C@H](CO)[C@H]2O)c(=O)n1` [[3R-(3α,4β,5α)]-4-Amino-1-[tetrahydro-4-hydroxy-5-(hydroxymethyl)-3-furanyl]-2(1H)-pyrimidinone], the IC50 was more than 100 µg/mL in the assay with HSV-2 (Human alphaherpesvirus 2, WI-38, 96 h); 25 to 50 µg/mL (≈ 110 to 220 µM) in the assay with VZV; more than 100 µg/mL in the assay on HSV-1 (Human alphaherpesvirus 1, WI-38, 96 h).

These data come from patent US5272152A, “Purinyl and pyrimidinyl tetrahydrofurans” (priority 1991, dated 1993).
